Experimental findings from PMC10107436, “Persicamidines—Unprecedented Sesquarterpenoids with Potent Antiviral Bioactivity against Coronaviruses” (Angewandte Chemie (International Ed. in English), 2023) are described below.

In one data set the test system is hCoV-229E. The experiment in a line: microbe, parasite or virus in culture. Type of data set: cell-based. The conditions noted are these: Human coronavirus 229E.
The subject of another data set is SARS-CoV-2. The experiment in a line: microbe, parasite or virus in culture. Type of data set: cell-based. The conditions noted are these: for IC50: Severe acute respiratory syndrome coronavirus 2, SARS-CoV-2 in A549_ACE2_TMPRSS2 cells, fluorescence, mean of three biological replicates; for selectivity index (CC50/IC50): CC50 in A549_ACE2_TMPRSS2 cells over IC50.
A further data set is described as follows: in vitro. As to conditions: human.

As a reminder, the IC50 is the concentration at which inhibition is half-maximal. High values mean weaker potency in that assay, low ones greater potency in that assay.

For the molecule `CC[C@@H](C)NC1=N[C@@]2(C)C(=CO1)[C@@]1(C)C(=O)C[C@H]3[C@@H](CC[C@@H]4[C@]3(C)CC[C@H]3[C@@]4(C)CC[C@H]4[C@@](C)(CO)C[C@H](O[C@H]5C[C@@H](OC)[C@H](O)[C@@H](C)O5)[C@@H](O)[C@@]43C)[C@@]13O[C@H]3[C@@H]2O` [Persicamidine A, persicamidine A], the 50% inhibitory concentration (IC50) stood at 3.8 nM in the data set on hCoV-229E and 130 nM in the data set on SARS-CoV-2.

Consider `CO[C@@H]1C[C@H](O[C@H]2C[C@](C)(CO)[C@@H]3CC[C@@]4(C)[C@@H]5CC[C@@H]6[C@H](CC(=O)[C@]7(C)C8=COC(NC(C)C)=N[C@]8(C)[C@@H](O)[C@@H]8O[C@@]687)[C@@]5(C)CC[C@@H]4[C@@]3(C)[C@@H]2O)O[C@H](C)[C@H]1O` [Persicamidine B, persicamidine B], for which the half-maximal inhibitory concentration (IC50) with hCoV-229E is 3.6 nM; with SARS-CoV-2 it was 230 nM.

For the molecule `CO[C@@H]1C[C@H](O[C@H]2C[C@](C)(CO)[C@@H]3CC[C@@]4(C)[C@@H]5CC[C@@H]6[C@H](CC(=O)[C@]7(C)C8=COC(N[C@H](C)C(C)C)=N[C@]8(C)[C@@H](O)[C@@H]8O[C@@]687)[C@@]5(C)CC[C@@H]4[C@@]3(C)[C@@H]2O)O[C@H](C)[C@H]1O` [Persicamidine C, persicamidine C], the 50% inhibitory concentration (IC50) in the data set with hCoV-229E stood at 6.6 nM. For the same molecule, in the data set on SARS-CoV-2, the IC50 is 74 nM and the “selectivity index (CC50/IC50)” value is more than 50.

Consider `CO[C@@H]1C[C@H](O[C@H]2C[C@](C)(CO)[C@@H]3CC[C@@]4(C)[C@@H]5CC[C@@H]6[C@H](CC(=O)[C@]7(C)C8=COC(N[C@H](C)C(C)(C)C)=N[C@]8(C)[C@@H](O)[C@@H]8O[C@@]687)[C@@]5(C)CC[C@@H]4[C@@]3(C)[C@@H]2O)O[C@H](C)[C@H]1O` [Persicamidine D, persicamidine D], for which the IC50 is 5.2 nM with hCoV-229E and 84 nM with SARS-CoV-2. Further, in the data set with SARS-CoV-2, the “selectivity index (CC50/IC50)” value is more than 80.

With `CCNC1=N[C@@]2(C)C(=CO1)[C@@]1(C)C(=O)C[C@H]3[C@@H](CC[C@@H]4[C@]3(C)CC[C@H]3[C@@]4(C)CC[C@H]4[C@@](C)(CO)C[C@H](O[C@H]5C[C@@H](OC)[C@H](O)[C@@H](C)O5)[C@@H](O)[C@@]43C)[C@@]13O[C@H]3[C@@H]2O` [Persicamidine E, persicamidine E], the IC50 with hCoV-229E was found to be 5.3 nM; in the data set on SARS-CoV-2, 250 nM.

In the case of `CCC(CC)COC(=O)[C@H](C)N[P@](=O)(OC[C@H]1O[C@@](C#N)(c2ccc3c(N)ncnn23)[C@H](O)[C@@H]1O)Oc1ccccc1` [Remdesivir, reference compound], the results for the half-inhibitory concentration (IC50) with hCoV-229E and in the data set with SARS-CoV-2 were 3.5 nM and 30 nM, respectively. Moreover, in the data set with SARS-CoV-2 (SARS-CoV-2, antiviral compound control at 1 µM), the viral inhibition result is reported as “full viral inhibition”. Moreover, in “in vitro”, the CC50 was more than 1000 nM.
